Results taken from US20110160303A1, “N-ALKYLCARBONYL-AMINO ACID ESTER AND N-ALKYLCARBONYL-AMINO LACTONE COMPOUNDS AND THEIR USE” (Edward Tak WEI, priority 2005, published 2011).

Columns and labels:
[1] = Octanol/water partition coefficient; assay type: physicochemical
Procedure: The octanol/water partition coefficients (given in log P units) for a number of compounds were determined and are shown in Table 7, together with the threshold for cooling on the tongue tested at 40 mM. […] A longer duration of action was not precisely matched with log P values.

skin above the upper lip = experiment: Cooling sensation on facial skin, ointment applied to skin above the upper lip; assay type: in vivo, human; parameters: key to refreshing cooling and absence of skin irritation or eye irritation (“perfect cool”): (*) denotes compounds with refreshing cooling and absence of skin irritation or eye irritation after facial skin or periorbital applications; a “perfect cool.”; conditions: for Duration of Skin Cooling: 40 mM (1% wt/vol) ointment; for Duration of Skin Cooling / Duration of Action On-Off (minutes): On (onset) / Duration of Action On-Off (minutes): duration (offset minus onset) / Duration of Action On-Off (minutes): Off (offset): skin above upper lip; for Duration of Action On-Off (minutes): On (onset): 40 mM (~1% wt/vol) Aquaphor ointment, 40 to 70 mg, time to reach 2 units of coolness; for Duration of Action On-Off (minutes): duration (offset minus onset) / Duration of Action On-Off (minutes): Off (offset): 40 mM Aquaphor ointment; for Duration of Action On-Off (minutes): Off (offset): time when coolness drops below 2 units; for refreshing cooling and absence of skin irritation or eye irritation (“perfect cool”): after facial skin or periorbital applications
From the text: A reliable place for topical application is the skin above the upper lip (above the vermilion border of the lips), on the philtrum, lateral to the philtrum until the nasolabial folds, and on the lower nostrils (subnasale). This part of the face is known to be densely innervated with cold receptors, second only to the surfaces of the eyeball and anogenitalia. A second location is on or below the malar eminence (cheekbone). The skin above the cheekbone is thicker than above the lips, and therefore has a higher threshold for activation. At both loci, tingling, cool and cold sensations in the skin may be experienced and rated for time of onset and intensity.
The intensity of the subjective skin sensation is rated as 0, 1, 2 or 3 with: 0 as no change; 1 as slight coolness, cold, or tingling; 2 as clear-cut signal of coolness, cold, or tingling; and 3 as robust cooling or cold. The intervals for recording sensations are 5 to 10 minutes, until two successive zeroes are obtained. The results (shown in FIGS. 1 and 2) are averaged values of 4 to 6 separate trials in the same individual. The data are plotted using SigmaPlot® (Systat Software, Point Richmond Calif.) and a smoothing function with a negative exponential was used for analysis and statistical fit of the results. Confirmatory trials of cooling action of the long-acting NACE compounds were obtained in 2 to 4 individuals but not quantified for some because of the large number of chemicals that were evaluated.
(§1) The onset of drug action is taken as the time to reach 2 units of coolness intensity, and offset of drug action is the time when coolness intensity drops below 2, after previously surpassing 2 units. The duration of cooling action is defined as the offset time minus the onset time. […] The quality of the sensation is noted, for example, as pure refreshing coolness, or if the sensation is accompanied by irritation (stinging or burning). The quality of the sensation is not rated for intensity.
For bioassay on the skin, approximately 30 mg was stirred and dissolved in 3 g of warm liquid Aquaphor® ointment to a yield a 40 mM (˜1% wt/vol) ointment. The exact amount was adjusted so that the molar equivalent was about 35 to 40 mM. After cooling, 40 to 70 mg of the solid ointment was placed on the tip of a plastic stick and applied to the skin above the upper lip, on the philtrum, and lateral to the philtrum, up to the nasolabial folds, of test subjects and the onset and duration of cooling sensations noted.
The intensity of the subjective skin sensation was rated as 0, 1, 2 or 3 with: 0 as no change; 1 as slight coolness, cold, or tingling; 2 as clear signal of coolness, cold, or tingling; and 3 as robust cooling or cold. The intervals for recording sensations were 5 to 10 minutes, until two successive zeroes were obtained. The results (shown in FIGS. 1 and 2) are averaged values of 4 to 6 separate trials in the same individual. The data are plotted using SigmaPlot® (Systat Software, Point Richmond, Calif., USA) and a smoothing function with a negative exponential was used for analysis and statistical fit of the results.
as §1, with “was” for “is”, “was also noted: such” for “is noted, for example,”
Test compounds were singly applied to the skin above the upper lips at a 40 to 70 mg dose of a 1% wt/vol ointment.

oral cavity = experiment: Oral cavity test, substance placed on dorsal surface of the tongue; assay type: in vivo, human; conditions: Study 7, 2 mg per dose
Procedure: The subject is instructed to close and hold the substance in the mouth for at least 10 seconds and not to swallow. The description of sensations is then recorded at 5 minute intervals.
The compounds of Formula (1) and (2) are white crystalline solids at room temperatures. These compounds were tested as such, or mixed 1:1 with powdered or granulated sugar. The test substances were applied at 1 to 5 mg on the mid-point of the dorsal surface of the tongue using a metal spatula or a plastic applicator. After depositing the test substance on the tongue, the subject was instructed to keep the mouth closed and allow the fluids of the mouth to inter-mix with the test substance and to distribute it to the back of the mouth (oropharynx). The presence and duration of subjective sensations from the mouth was then noted.
In normal subjects, the effects of the D-Ala methyl and ethyl ester compounds falling within Formula (1) ((R)-2-[((1R,2S,5R)-2-isopropyl-5-methyl-cyclohexanecarbonyl)-amino]-propionic acid methyl or ethyl ester)) were examined. Three doses of 1, 2 and 4 mg per application were examined and compared to a similar dose of the L-Ala methyl or ester analog ((S)-2-[((1R,2S,5R)-2-isopropyl-5-methyl-cyclohexanecarbonyl)-amino]-propionic acid methyl or ethyl ester). At the 2 or 4 mg dose, all compounds produced pleasant and robust cooling sensations on the tongue, extending down to the back of throat, and lasted for about 30 minutes and longer. The onset effect was usually within 30 seconds of application.

tongue = experiment: Threshold for cooling on the tongue; assay type: in vivo, human; conditions: threshold for cooling on the tongue
Procedure: Watson et al. (U.S. Pat. No. 4,178,459) tested the properties of N-substituted p-menthane carboxamides on volunteers by putting filter paper (1×1 cm), impregnated with a known amount of compound, onto the dorsal surface of the tongue of the test subject. After 30 seconds, the subject was required to report presence or absence of a cooling effect. […] The average threshold of (−)-menthol for 6 subjects was 0.25 μg, but there was a 100-fold variation in individual sensitivity. As noted above, coolness signals detected from the dorsal surface of the tongue may be confounded by gustatory, olfactory, and other variables, as well as by dilution from saliva. The octanol/water partition coefficients (given in log P units) for a number of compounds were determined and are shown in Table 7, together with the threshold for cooling on the tongue tested at 40 mM. […] A longer duration of action was not precisely matched with log P values.

SMILES	logP [1]	Duration of Skin Cooling (skin above the upper lip)	Duration of Action On-Off (minutes): On (onset) (skin above the upper lip) [min]	Duration of Action On-Off (minutes): duration (offset minus onset) (skin above the upper lip)	Duration of Action On-Off (minutes): Off (offset) (skin above the upper lip) [min]	refreshing cooling and absence of skin irritation or eye irritation (“perfect cool”) (skin above the upper lip)	cooling sensation at the back of the throat (oral cavity)	Log P [1]	Threshold tongue (tongue) [µg]
CC(C)[C@@H]1CC[C@@H](C)C[C@H]1C(=O)NC1CCOC1=O (mixture of isomers) [racemic Hsl, (1R,2S,5R)-2-isopropyl-5-methyl-cyclohexanecarboxylic acid (2-oxo-tetrahydro-furan-3-yl)-amide]	2.5	1.4 h	2	84 min	86	racemic Hsl (*)	robust and prolonged cooling		
CCOc1ccc(NC(=O)C2CC(C)CCC2C(C)C)cc1 (stereo not drawn) [CPS-306]		not active		inactive				5.8	
CCCCOc1ccc(NC(=O)C2CC(C)CCC2C(C)C)cc1 (stereo not drawn) [CPS-308]		not active		inactive				6.9	
COc1ccc(NC(=O)C2CC(C)CCC2C(C)C)c(OC)c1 (stereo not drawn) [CPS-309]		0.6 h	13	37 min	50			5.0	
CCCOc1ccc(NC(=O)C2CC(C)CCC2C(C)C)cc1 (stereo not drawn) [CPS-310]		not active		inactive				6.3	
CC(C)[C@@H]1CC[C@@H](C)C[C@H]1C(=O)N[C@@H]1CCOC1=O [D-Hsl, (1R,2S,5R)-2-isopropyl-5-methyl-cyclohexanecarboxylic acid ((R)-2-oxo-tetrahydro-furan-3-yl)-amide]	2.5	1.3 h	2	78 min	80	D-Hsl (*)	robust and prolonged cooling		
COC(=O)CCC(NC(=O)C1CC(C)CCC1C(C)C)C(=O)OC (stereo not drawn) [Glu(OMe) Me Ester]		not active		not active				2.2	
COC(=O)CNC(=O)C1CC(C)CCC1C(C)C (stereo not drawn) [Gly Me Ester (WS-31), reference compound]		0.3 h	5	20 min	25			2.4	0.6
CCOC(=O)C(C)NC(=O)C1CC(C)CCC1C(C)C [L-Ala Et Ester]		0.7 h	8	44 min	52			3.1	0.4
COC(=O)C(C)NC(=O)C1CC(C)CCC1C(C)C [L-Ala Me Ester]		1.3 h	1	79 min	80			2.8	0.6
CC(C)[C@@H]1CC[C@@H](C)C[C@H]1C(=O)N[C@H]1CCOC1=O [L-Hsl, (1R,2S,5R)-2-isopropyl-5-methyl-cyclohexanecarboxylic acid (S)-(2-oxo-tetrahydro-furan-3-yl)-amide]	2.5	1.4 h	2	85 min	87	L-Hsl (*)	robust and prolonged cooling		
COC(=O)C(NC(=O)C1CC(C)CCC1C(C)C)C(C)C [L-Val Me Ester]		not active		not active				4.2	
COC(=O)C1CCCN1C(=O)[C@@H]1C[C@H](C)CC[C@H]1C(C)C (stereo partly drawn) [Pro Me Ester]	3.3	not active		not active					
CC1CCC(C(C)C)C(C(=O)NC(C)C)C1 (stereo not drawn) [WS-10, reference compound]		0.3 h	6	19 min	25			4.1	0.4
CCC(C)NC(=O)C1CC(C)CCC1C(C)C (stereo not drawn) [WS-34, reference compound]		not active		inactive				4.6	0.7
CCOC(=O)CCNC(=O)C1CC(C)CCC1C(C)C (stereo not drawn) [β-Ala Et Ester]		1.4 h	3	87 min	90			3.1	1.5
